In US10316017B2, “COT modulators and methods of use thereof” (Gilead Sciences, Inc., priority 2015, dated 2019):

Columns and labels:
[1] = system: TNFα production in LPS-stimulated human monocytes; experiment: Cot Monocyte TNFα Cell Based Assay; settings: Homo sapiens, Monocyte, TNFα in LPS-stimulated human monocytes; read-out: EC50 TNF
Summary of the method: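 Percent-of-control values derive from TR-FRET ratios of TNFα in spun-down media, referenced to unstimulated and LPS-stimulated wells. Exposure: 1 h compound preincubation, then 50 pg/ml LPS for 4 h, both at 37 °C, with 0.5% final DMSO.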

[2] = molecular target: T1, human Cot catalytic domain (30-397 amino acids) (Homo sapiens, UniProt P41279); experiment: High Throughput Cot Biochemical Assay (KinEASE TR-FRET); settings: Cot KinEASE TR-FRET (HTRF) biochemical assay, 400 μM ATP; read-out: IC50 HTRF
T1 construct: Purified recombinant human Cot catalytic domain (30-397 amino acids) was purchased from Cama Biosciences; purchased Cama Biosciences (so in the source)
Summary of the method: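 Phosphorylation of 1 μM XL665-STK3 peptide by 5 nM Cot catalytic domain was measured by time-resolved FRET using a europium […] antibody. ATP was 400 μM; buffer was 10 mM MOPS pH 7.0 with Mg2+ and DTT.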

T1 sequence (P41279 30-397): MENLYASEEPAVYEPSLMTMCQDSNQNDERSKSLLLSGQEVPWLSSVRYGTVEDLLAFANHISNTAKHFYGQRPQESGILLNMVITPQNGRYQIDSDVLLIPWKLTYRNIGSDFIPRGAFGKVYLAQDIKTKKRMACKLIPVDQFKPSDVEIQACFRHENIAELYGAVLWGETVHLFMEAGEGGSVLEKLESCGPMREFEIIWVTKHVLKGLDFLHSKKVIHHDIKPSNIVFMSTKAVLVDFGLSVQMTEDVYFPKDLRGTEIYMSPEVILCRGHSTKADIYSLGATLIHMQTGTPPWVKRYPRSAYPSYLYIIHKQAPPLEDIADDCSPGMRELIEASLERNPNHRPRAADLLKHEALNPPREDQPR

| Structure (SMILES) | EC50 [1] [nM] | IC50 [2] [nM] |
| --- | --- | --- |
| [2H][C@](Nc1cc(Cl)c2ncc(C#N)c(N[C@@H]3CCOCC3(C)C)c2c1)(c1ccc(F)cc1)c1cn(C2CC2)nn1 [Example 146, 8-chloro-6-(((S)-(1-cyclopropyl-1H-1,2,3-triazol-yl)(4-fluorophenyl)methyl-d)amino)-4-(((R)-3,3-dimethyltetrahydro-2H-pyran-4-yl)amino) quinoline-3-carbonitrile] | 895 | 95 |
| [2H][C@](Nc1cc(Cl)c2ncc(C#N)c(NCCc3nccs3)c2c1)(c1ccc(F)cc1)c1cn(C2CC2)nn1 [Example 147, (S)-8-chloro-6-(((1-cyclopropyl-1H-1,2,3-triazol-4-yl)(4-fluorophenyl)methyl-d)amino)-4-((2-(thiazol-2-yl)ethyl)amino) quinoline-3-carbonitrile] | 3610 | 254 |
| [2H][C@](Nc1cc(Cl)c2ncc(C#N)c(NCCc3ccn(C)n3)c2c1)(c1ccc(F)cc1)c1cn(C2CC2)nn1 [Example 148, (S)-8-chloro-6-(((1-cyclopropyl-1H-1,2,3-triazol-4-yl)(4-fluorophenyl)methyl-d)amino)-4-((2-(1-methyl-1H-pyrazol-3-yl)ethyl)amino) quinoline-3-carbonitrile] | 8670 | 2140 |
| [2H][C@](Nc1cc(Cl)c2ncc(C#N)c(NCCc3ccnn3C)c2c1)(c1ccc(F)cc1)c1cn(C2CC2)nn1 [Example 149, (S)-8-chloro-6-(((1-cyclopropyl-1H-1,2,3-triazol-4-yl)(4-fluorophenyl)methyl-d)amino)-4-((2-(1-methyl-1H-pyrazol-5-yl)ethyl)amino) quinoline-3-carbonitrile] | 2110 | 162 |
| [2H][C@](Nc1ccc2nc(F)c(C#N)c(NCC(C)(C)C)c2c1)(c1ccc(F)cc1)c1cn(C2CC2)nn1 [Example 151, (S)-6-(((1-cyclopropyl-1H-1,2,3-triazol-4-yl)(4-fluorophenyl)methyl-d)amino)-2-fluoro-4-(neopentylamino) quinoline-3-carbonitrile] | 5870 | > 10000 |
| [2H][C@@](Nc1cc(C#N)c2ncc(C#N)c(NCC(C)(C)C)c2c1)(c1cn(C2CC2)nn1)c1ccccc1Cl [Example 152, (S)-6-(((2-chlorophenyl) (1-cyclopropyl-1H-1,2,3-triazol-4-yl)methyl-d)amino)-4-(neopentylamino) quinoline-3,8-dicarbonitrile] | 213 | 7 |
| [2H][C@](Nc1cc(Cl)c2ncc(C#N)c(NC34CC(C3)C4)c2c1)(c1ccc(F)cc1)c1cn(C2CC2)nn1 [Example 153, (S)-4-(bicyclo[1.1.1]pentan-1-ylamino)-8-chloro-6-(((1-cyclopropyl-1H-1,2,3-triazol-4-yl)(4-fluorophenyl)methyl-d)amino)quinoline-3-carbonitrile] | 892 | 196 |
| [2H][C@](Nc1cc(Cl)c2ncc(C#N)c(N[C@@H]3C[C@H]3C(F)(F)F)c2c1)(c1ccc(F)cc1)c1cn(C2CC2)nn1 [Example 154, 8-chloro-6-(((S)-(1-cyclopropyl-1H-1,2,3-triazol-4-yl)(4-fluorophenyl)methyl-d)amino)-4-(((1R,2R)-2-(trifluoromethyl)cyclopropyl)amino)quinoline-3-carbonitrile] | 576 | 39 |
| [2H][C@](Nc1cc(Cl)c2ncc(C#N)c(N[C@@H]3C[C@H]3CC)c2c1)(c1ccc(F)cc1)c1cn(C2CC2)nn1 [Example 155, 8-chloro-6-(((S)-(1-cyclopropyl-1H-1,2,3-triazol-4-yl)(4-fluorophenyl)methyl-d)amino)-4-(((1R,2R)-2-ethylcyclopropyl)amino)quinoline-3-carbonitrile] | 348 | 36 |
| [2H][C@](Nc1cc(Cl)c2ncc(C#N)c(NC3CC3(C)C)c2c1)(c1ccc(F)cc1)c1cn(C2CC2)nn1 (stereo partly drawn) [Example 156, 8-chloro-6-(((S)-(1-cyclopropyl-1H-1,2,3-triazol-4-yl)(4-fluorophenyl)methyl-d)amino)-4-((2,2-dimethylcyclopropyl)amino)quinoline-3-carbonitrile] | 477 | 30 |
| [2H][C@](Nc1cc2c(NCC(C)(C)C)c(C#N)cnc2c(C)c1F)(c1ccc(F)cc1)c1cn(C2CC2)nn1 [Example 157, 6-(((1-cyclopropyl-1H-1,2,3-triazol-4-yl)(4-fluorophenyl)methyl-d)amino)-7-fluoro-8-methyl-4-(neopentylamino) quinoline-3-carbonitrile] | > 10000 | 3740 |
| [2H][C@](Nc1cc(Cl)c2ncc(C#N)c(Nc3cccc(Cl)c3C)c2c1)(c1ccc(F)cc1)c1cn(C2CC2)nn1 [Example 159, (S)-8-chloro-4-((3-chloro-2-methylphenyl)amino)-6-(((1-cyclopropyl-1H-1,2,3-triazol-4-yl)(4-fluorophenyl)methyl-d)amino)quinoline-3-carbonitrile] | 1340 | 114 |
| [2H][C@](Nc1cc(Cl)c2ncc(C#N)c(Nc3ccccc3OC)c2c1)(c1ccc(F)cc1)c1cn(C2CC2)nn1 [Example 160, (S)-8-chloro-6-(((1-cyclopropyl-1H-1,2,3-triazol-4-yl)(4-fluorophenyl)methyl-d)amino)-4-((2-methoxyphenyl)amino)quinoline-3-carbonitrile] | 3260 | 496 |
| [2H][C@](Nc1cc(Cl)c2ncc(C#N)c(N[C@H](c3ccccc3)[C@H]3C[C@@H]3C#N)c2c1)(c1ccc(F)cc1)c1cn(C2CC2)nn1 [Example 161, 8-chloro-4-(((S)-((1S,2S)-2-cyanocyclopropyl) (phenyl)methyl)amino)-6-(((S)-(1-cyclopropyl-1H-1,2,3-triazol-4-yl)(4-fluorophenyl)methyl-d)amino) quinoline-3-carbonitrile] | > 10000 | 941 |
| [2H][C@](Nc1cc(Cl)c2ncc(C#N)c(N[C@H](c3ccccc3)[C@@H]3C[C@H]3C#N)c2c1)(c1ccc(F)cc1)c1cn(C2CC2)nn1 [Example 162, 8-chloro-4-(((S)-((1R,2R)-2-cyanocyclopropyl) (phenyl)methyl)amino)-6-(((S)-(1-cyclopropyl-1H-1,2,3-triazol-4-yl)(4-fluorophenyl)methyl-d)amino)quinoline-3-carbonitrile] | > 10000 | 7890 |
| [2H][C@](Nc1cc(Cl)c2ncc(C#N)c(Nc3cccc(Cl)c3OC)c2c1)(c1ccc(F)cc1)c1cn(C2CC2)nn1 [Example 163, (S)-8-chloro-4-((3-chloro-2-methoxyphenyl)amino)-6-(((1-cyclopropyl-1H-1,2,3-triazol-4-yl)(4-fluorophenyl)methyl-d)amino)quinoline-3-carbonitrile] | 170 | 3 |
| [2H][C@](Nc1cc(F)c2ncc(C#N)c(N[C@H](CCC#N)c3ccccc3)c2c1)(c1cccc(C#N)c1)c1cn(C2CC2)nn1 [Example 164, 4-(((R)-3-cyano-1-phenylpropyl)amino)-6-(((S)-(3-cyanophenyl)(1-cyclopropyl-1H-1,2,3-triazol-4-yl)methyl-d)amino)-8-fluoroquinoline-3-carbonitrile] | 15 | 1 |
| [2H][C@](Nc1cc(F)c2ncc(C#N)c(N[C@@H](CCC#N)c3ccccc3)c2c1)(c1cccc(C#N)c1)c1cn(C2CC2)nn1 [Example 165, 4-(((S)-3-cyano-1-phenylpropyl)amino)-6-(((S)-(3-cyanophenyl) (1-cyclopropyl-1H-1,2,3-triazol-4-yl)methyl-d)amino)-8-fluoroquinoline-3-carbonitrile] | 6270 | 2090 |
| [2H][C@](Nc1cc(Cl)c2ncc(C#N)c(N[C@H](CCN3CCCCC3)c3ccccc3)c2c1)(c1ccc(F)cc1)c1cn(C2CC2)nn1 [Example 166, 8-chloro-6-(((1-cyclopropyl-1H-1,2,3-triazol-4-yl)(4-fluorophenyl)methyl-d)amino)-4-(((R)-1-phenyl-3-(piperidin-1-yl)propyl)amino)quinoline-3-carbonitrile] | 979 | 61 |
| [2H][C@](Nc1cc(Cl)c2ncc(C#N)c(N[C@H](CCN3CCCC3)c3ccccc3)c2c1)(c1ccc(F)cc1)c1cn(C2CC2)nn1 [Example 167, 8-chloro-6-(((1-cyclopropyl-1H-1,2,3-triazol-4-yl) (4-fluorophenyl)methyl-d)amino)-4-(((R)-1-phenyl-3-(pyrrolidin-1-yl)propyl)amino) quinoline-3-carbonitrile] | > 10000 | 171 |
| [2H][C@](Nc1cc(-c2cn[nH]c2)c2ncc(C#N)c(NCC(C)(C)C)c2c1)(c1ccc(F)cc1)c1cn(C2CC2)nn1 [Example 168, (S)-6-(((1-cyclopropyl-1H-1,2,3-triazol-4-yl)(4-fluorophenyl)methyl-d)amino)-4-(neopentylamino)-8-(1H-pyrazol-4-yl)quinoline-3-carbonitrile] | 9570 | 2070 |
| [2H][C@](Nc1cc(-c2ccc(NC(C)=O)cc2)c2ncc(C#N)c(NCC(C)(C)C)c2c1)(c1ccc(F)cc1)c1cn(C2CC2)nn1 [Example 169, (S)-N-(4-(3-cyano-6-(((1-cyclopropyl-1H-1,2,3-triazol-4-yl)(4-fluorophenyl)methyl-d)amino)-4-(neopentylamino)quinolin-8-yl)phenyl)acetamide] | 2910 | 543 |
| [2H][C@](Nc1cc(-c2cccnc2)c2ncc(C#N)c(NCC(C)(C)C)c2c1)(c1ccc(F)cc1)c1cn(C2CC2)nn1 [Example 170, (S)-6-(((1-cyclopropyl-1H-1,2,3-triazol-4-yl)(4-fluorophenyl)methyl-d)amino)-4-(neopentylamino)-8-(pyridin-3-yl)quinoline-3-carbonitrile] | 562 | 48 |
